Laboratory results as given in patent US8258098B2, “Antitumoral treatments” (Pharma Mar, S.A., priority 2006, dated 2012).

What was measured:
[1] = system: LOX-IMVI melanoma tumor xenografts; experiment: Net tumor volume in tumor xenografts; assay type: in vivo, female athymic mice; conditions: DTIC 30 mg/kg, Carboplatin 25 mg/kg, i.p.
Source text: (§1) Athymic nude female mice were received from Harlan Sprague Dawley, Madison, Wis. at 4-5 weeks of age. Mice were acclimated to the laboratory for at least one week prior to implantation of tumor. Animals were housed in static cages with food and water allowed ad libitum. Experimental animals were implanted with either tumor fragments derived from transplantation established human tumors or with cells obtain directly from in vitro culture. Tumors were implanted subcutaneously on the right flank on Day 0.
(§2) Tumor size measurements were recorded twice weekly beginning on day 4 or 5 using vernier calipers. The formula to calculate volume for a prolate ellipsoid was used to estimate tumor volume from 2-dimensional tumor measurements: tumor volume (mm^3)=(length×width^2)÷2. Assuming unit density, volume was converted to weight (i.e., 1 mm^3=1 mg). […] Treatments were initiated and administered on an individual body weight basis. A dose range finding study was performed on each tumor model to determine the appropriate dose level of each compound used in the combination studies.

[2] = system: MRI-H187 melanoma tumor xenografts; experiment: Net tumor volume in tumor xenografts; assay type: in vivo, female athymic mice; conditions: Aplidine 50 μg/kg, DTIC 40 mg/kg, Carboplatin 25 mg/kg, i.p.
Source text: as §1, §2

[3] = system: LOXIMVI cells; experiment: MTS assay Example 2, single agents and combinations; assay type: cell-based; conditions: read-out: IC50 (Molar)
Protocol: (§3) The day before plating cells all cultures were fed with fresh, complete growth media. On the harvest (plating) day cells were counted by Trypan Blue exclusion staining method.
(§4) Cells were harvested and seeded in 96 well microtiter plates at 15,000 cells per well in 190 μl of media and incubated for 24 hours to allow the cells to attach before drug addition.
(§5) The cytotoxic effect was measured by the MTS Assay (Tetrazolium), which is a colorimetric method for determining the number of viable cells.
(§6) After 72 hours of incubation with tested agents 25 μl of MTS+PMS solution was added to each microtiter well and incubated for 4 hours at 37° C. Plates were then removed from incubator and placed on plate shaker for 5 minutes (covered with aluminum foil for protection from light). Optical densities were read at 490 nm on spectrophotometer plate reader. Data was analyzed as: • 1. Prism (Graphpad) software program was used to normalized the data to control values (100%=cell growth in the absence of agent (drug); 0%=blank control). • 2. Data normalized were plotted as scatter plots.
(§7) Conversely, antagonism was concluded when inhibition was lower than both maxima. […] Statistical significance was assessed by performing a student's t-test on the inhibition at each dose ratio versus the inhibition at the maximum for each drug.
(§8) As a visual aid, response values were plotted on a scatter plot with dose ratios given on the x-axis and % response values on the y-axis. […] In cases where response values at the two endpoints were approximately equivalent, points lying above or below this predicted line of additivity could be interpreted as representing antagonistic or synergistic drug interaction respectively.

[4] = system: UACC-257 cells; experiment: as above; assay type: cell-based; conditions: UACC-257, MTS; read-out: IC50 (Molar)
Protocol: as §3, §4, §5, §6, §7, §8

[5] = system: UACC-257 human melanoma cells; experiment: Antitumor efficacy against subcutaneous-implanted melanoma xenograft; assay type: in vivo, female, athymic NCr-nu/nu mice; conditions: UACC-257 xenograft, median tumor weight; Aplidine 60 μg/kg/dose IP q1d × 9, Carboplatin 50 mg/kg/dose IV q4d × 3
Protocol: The animals were housed in microisolator cages, up to five per cage in a 12-hour light/dark cycle. Six-weeks-old female, athymic NCr-nu/nu mice were acclimated in the laboratories for one week prior to the experiment.
Each mouse was inoculated subcutaneously near the right flank with UACC-257 human melanoma cells from an in vitro cell culture using a 23-gauge needle. Each mouse received 2×10^7 cells resuspended in 0.2 mL of Matrigel®. A vial with UACC-257 human melanoma frozen cells was thawed and cultured in RPMI 1640 medium containing low glucose (2,000 mg/L), sodium bicarbonate ([…]), 2 mM L-glutamine, and 10% fetal bovine serum (complete medium), and grown in a +37° C. incubator in a humidified atmosphere with 5% CO2 until the necessary number of cells for inoculation of mice was obtained. Cells were harvested after four passages in culture. […] The cell count and viability were determined with a Beckman Coulter VI CELL XR cell counter and viability analyzer. […]
Animals were observed daily and clinical signed were noted. The s.c. tumors were measured and the animals were weighed twice weekly starting with the first day of treatment, Day 13. Tumor volume was determined by caliper measurements (mm) and using the formula for an ellipsoid sphere: L×W^2/2=mm^3, where L and W refer to the larger and smaller perpendicular dimensions collected at each measurement. […]

## N.N.O=C([O-])C1(C(=O)[O-])CCC1.[Pt+2] [carboplatin]
[1]; DAY 6, Aplidine 50 μg/kg
  Net Tumor Volume ± S.E.M.: 107 ± 3 mg
[1]; DAY 8, Aplidine 50 μg/kg
  Net Tumor Volume ± S.E.M.: 347 ± 43 mg
[1]; DAY 12, Aplidine 50 μg/kg
  Net Tumor Volume ± S.E.M.: 1167 ± 117 mg
[1]; DAY 14, Aplidine 50 μg/kg
  Net Tumor Volume ± S.E.M.: 2936 ± 543 mg
[1]; DAY 19, Aplidine 50 μg/kg
  Net Tumor Volume ± S.E.M.: 4598 ± 1182 mg
[2]; MRI-H187, DAY 24
  Net Tumor Volume ± S.E.M.: 213 ± 32 mg
[2]; MRI-H187, DAY 27
  Net Tumor Volume ± S.E.M.: 301 ± 50 mg
[2]; MRI-H187, DAY 34
  Net Tumor Volume ± S.E.M.: 540 ± 99 mg
[2]; MRI-H187, DAY 38
  Net Tumor Volume ± S.E.M.: 793 ± 132 mg
[2]; MRI-H187, DAY 41
  Net Tumor Volume ± S.E.M.: 917 ± 138 mg
[2]; MRI-H187, DAY 46
  Net Tumor Volume ± S.E.M.: 1303 ± 237 mg
[2]; MRI-H187, DAY 52
  Net Tumor Volume ± S.E.M.: 1603 ± 288 mg
[2]; MRI-H187, DAY 55
  Net Tumor Volume ± S.E.M.: 1989 ± 373 mg
[2]; MRI-H187, DAY 59
  Net Tumor Volume ± S.E.M.: 2292 ± 487 mg
[2]; MRI-H187, DAY 62
  Net Tumor Volume ± S.E.M.: 2659 ± 492 mg
[2]; MRI-H187, DAY 66
  Net Tumor Volume ± S.E.M.: 2723 ± 519 mg
[3]
  IC50: 120 µM
[4]
  IC50: 170 µM
[5]
  % T/C on day 23: 95%
  % T/C on day 70: 60%
